In brackets after ≈: the same amount, converted by molar mass.
How the values were obtained:
Assay type in all cases: functional
Conditions in all cases: variant bovis BCG
[1] = tested on: Mycobacterium tuberculosis; assay: Antimycobacterial activity against Mycobacterium bovis BCG at 100 uM by microplate alamar blue assay
[2] = tested on: Mycobacterium tuberculosis; assay: Antimycobacterial activity against Mycobacterium bovis BCG at 10 uM by microplate alamar blue assay
[3] = tested on: Mycobacterium tuberculosis; assay: Antimycobacterial activity against Mycobacterium bovis BCG by microplate alamar blue assay
[4] = tested on: Mycobacterium tuberculosis; assay: Antimycobacterial activity against Mycobacterium bovis BCG at 50 uM by microplate alamar blue assay
[5] = tested on: Mycobacterium tuberculosis; assay: Antimycobacterial activity against Mycobacterium bovis BCG at 1 uM by microplate alamar blue assay

Compound	inhibition at 100 µM [1] [%]	inhibition at 10 µM [2] [%]	MIC90 [3] [µg/mL]	inhibition at 50 µM [4] [%]	inhibition at 1 µM [5] [%]
Nc1nc(=O)n([C@H]2CC[C@@H](CO)O2)cc1Br	70	50			
CCCCCCCCCC#Cc1cn([C@H]2CC[C@@H](CO)O2)c(=O)[nH]c1=O	100	100	1 (≈ 2.76 µM)	100	80
CCCCCCCCCCCC#Cc1cn([C@H]2CC[C@@H](CO)O2)c(=O)[nH]c1=O	100	100	1 (≈ 2.56 µM)	100	60
O=c1[nH]c(=O)n([C@H]2CC[C@@H](CO)O2)cc1C#Cc1ccccc1	25			25	
O=c1[nH]c(=O)n([C@H]2CC[C@@H](CO)O2)cc1Br	0				
CCCC#Cc1cn([C@H]2CC[C@@H](CO)O2)c(=O)[nH]c1=O	50				
Nc1ncnc2c1ncn2[C@H]1CC[C@@H](CO)O1	0				
CC(=O)OC[C@@H]1CC[C@H](n2ccc(=O)[nH]c2=O)O1	0				
O=c1[nH]c(=O)n([C@H]2CC[C@@H](CO)O2)cc1Cl	0				
CCCc1ccc(C#Cc2cn([C@H]3C[C@H](F)[C@@H](CO)O3)c(=O)[nH]c2=O)cc1	100	50	50 (≈ 134 µM)	100	
CCCCCCCCCCCCC#Cc1cn(C2CC(F)C(CO)O2)c(=O)[nH]c1=O (stereo not drawn)	100	100	1 (≈ 2.37 µM)	100	
CCSc1nc(N)nc2c1ncn2[C@H]1CC[C@@H](CO)O1	100	40	10 (≈ 33.9 µM)	100	
CC(=O)OC[C@@H]1CC[C@H](n2cc(Cl)c(=S)[nH]c2=O)O1	100		50 (≈ 164 µM)	70	
CCCCCC#Cc1cn([C@H]2C[C@H](F)[C@@H](CO)O2)c(=O)[nH]c1=O	100	50	50 (≈ 154 µM)	50	
CCCCCCCCC#Cc1cn([C@H]2C[C@H](F)[C@@H](CO)O2)c(=O)[nH]c1=O	100	60	10 (≈ 27.3 µM)	100	
CCCCCCCCCCC#Cc1cn([C@H]2C[C@H](F)[C@@H](CO)O2)c(=O)[nH]c1=O	100	75	10 (≈ 25.3 µM)	100	

Compound	inhibition at 100 µM [1] [%]	inhibition at 10 µM [2] [%]	MIC90 [3] [µg/mL]	inhibition at 50 µM [4] [%]	inhibition at 1 µM [5] [%]
N#Cc1cn(C2CCC(CO)O2)c2ncnc(N)c12 (stereo not drawn)	50			40	
CCCCCCCCCCCC#Cc1cn([C@H]2C[C@H](F)[C@@H](CO)O2)c(=O)[nH]c1=O	100	75	10 (≈ 24.5 µM)	100	
CCCCCCCCC#Cc1cn([C@H]2CC[C@@H](CO)O2)c(=O)[nH]c1=O	100	100	1 (≈ 2.87 µM)	100	50
Nc1nc(=O)n([C@H]2CC[C@@H](CO)O2)cc1I	0				
CC(=O)OC[C@@H]1CC[C@H](n2cc(Cl)c(=O)[nH]c2=O)O1	0				
Cc1cn([C@H]2CC[C@@H](CO)O2)c(=O)nc1N	50	50		50	
NC(=O)c1cn([C@H]2CC[C@@H](CO)O2)c2ncnc(N)c12	25			25	
Nc1nc(F)c2ccn([C@H]3CC[C@@H](CO)O3)c2n1	50	30		50	
O=c1[nH]c(=S)c(Cl)cn1[C@H]1CC[C@@H](CO)O1	100		50 (≈ 190 µM)	50	
CCCCCCCCCCCCC#Cc1cn([C@H]2CC[C@@H](CO)O2)c(=O)[nH]c1=O	100	100	1 (≈ 2.47 µM)	100	50
Nc1nc(N)c2ncn([C@H]3CC[C@@H](CO)O3)c2n1	50			50	
Nc1nc(O)c2ncn([C@H]3CC[C@@H](CO)O3)c2n1	0				
Nc1ccn([C@@H]2CS[C@H](CO)O2)c(=O)n1 [LAMIVUDINE]	0				
COc1nc(N)nc2c1ncn2[C@H]1CC[C@@H](CO)O1 [METACAVIR]	25			25	
CO[C@H]1/C=C/O[C@@]2(C)Oc3c(C)c(O)c4c(O)c(c(/C=N/N5CCN(C)CC5)c(O)c4c3C2=O)NC(=O)/C(C)=C\C=C\[C@H](C)[C@H](O)[C@@H](C)[C@@H](O)[C@@H](C)[C@H](OC(C)=O)[C@@H]1C [RIFAMPIN]			0.5 (≈ 0.608 µM)		
Nc1ccn([C@H]2CC[C@@H](CO)O2)c(=O)n1 [ZALCITABINE]	0				
